Laboratory results published in patent US20240415819A1, “MACROCYCLIC COMPOUNDS AS PROTEASOME SUBUNIT BETA TYPE-5 INHIBITORS” (Lead Discovery Center GmbH, priority 2021, published 2024).

Tests used:
[1] = target: T1, β5 subunit of the human constitutive proteasome (CPS) (Homo sapiens, UniProt P28074); assay: β5 inhibition assay, human constitutive proteasome (Suc-LLVY-AMC); assay type: biochemical; conditions: IC50 class, Suc-LLVY-AMC substrate
T1 construct: purchased Boston Biochem E-360
Method: The enzymatic activity of the β5 subunit of the human constitutive proteasome (CPS) is analyzed. In another assay, which differs from the assay of the human constitutive proteasome only in using the human immunoproteasome (IPS) the enzymatic activity of the β5 subunit of the human immunoproteasome (IPS) is analyzed. […] Inhibition is indicated as IC50 [nM] (“-”=not measured).

[2] = test system: A549 (human lung carcinoma cell line); assay: Glo assay of A549 cells (Table 3; ProteasomeGlo plating scheme); assay type: cell-based; conditions: Homo sapiens; A549 cells; read-out: PGLo A549
Method in brief: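 Luminescent read-out of cellular chymotrypsin-like proteasome activity: cells exposed to compound 105 min at 37° C., 5% CO2, then given Suc-LLVY-Glo reagent, shaken 2-5 min and kept dark 10-15 min before reading. Values are IC50 [nM].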

[3] = test system: MM1 S (B lymphoblast cell line); assay: 48 hr CTG viability assay, MM1S; assay type: cell-based; conditions: Homo sapiens, 48 hr CTG, read-out: MM1S IC50
Method in brief: (§1)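 Growth inhibition by compound over 48 h; IC50 (nM) derived from duplicate CellTiter-Glo luminescence readings across 0.0015–10 uM.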

[4] = target: T2, β5 subunit of the human immunoproteasome (IPS) (Homo sapiens, UniProt P28062); assay: β5 inhibition assay, human immunoproteasome (Suc-LLVY-AMC); assay type: biochemical; conditions: IC50 class, Suc-LLVY-AMC substrate
T2 construct: purchased Boston Biochem E-370
Method in brief: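 β5 activity is read as liberated AMC fluorescence (355/460 nm) after 4 h dark reaction at RT with 22.6 μM Suc-LLVY-AMC, stopped by 1 μM bortezomib. Beforehand, 1 nM human IPS and compound sat 10 min at RT in HEPES pH 7.5 buffer containing NaCl, 0.02% SDS and DTT.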

[5] = test system: RPMI 8226 (B lymphocyte cell line, multiple myeloma); assay: 48 hr CTG viability assay, RPMI 8226; assay type: cell-based; conditions: Homo sapiens, RPMI-8226; 48 hr CTG; read-out: RPMI-8226 IC50
Method in brief: as §1

[6] = test system: Hs 746T (human gastric carcinoma cell line); assay: 48 hr CTG viability assay, Hs 746T; assay type: cell-based; conditions: Hs746T, 48 hr CTG, read-out: Hs 746T IC50
Method in brief: as §1

Row | Structure (SMILES) | IC50 [1] [nM] | IC50 [2] [nM] | IC50 [3] [nM] | IC50 [4] [nM] | IC50 [5] [nM] | IC50 [6] [nM]
1 | Cc1ccc2cc1CNC(=O)[C@H](CCc1ccccc1)NC(=O)[C@@H](NC(=O)CCN1CCC3(CCCC3)CC1)CC(=O)N1CCCC(CCO2)C1 (stereo partly drawn) [Compound 613, N-((9S,12S)-5^4-methyl-8,11,14-trioxo-9-phenethyl-4-oxa-7,10-diaza-1(3,1)-piperidina-5(1,3)-benzenacyclotetradecaphane-12-yl)-3-(8-azaspiro[4.5]decan-8-yl)propanamide] | < 100 | < 100 | < 100 | < 100 | < 100 | < 100
2 | Cc1ccc2cc1CNC(=O)[C@H](CCc1ccccc1)NC(=O)[C@@H](NC(=O)CCOCC1CC1)CC(=O)N1CCCC(CCO2)C1 (stereo partly drawn) [Compound 594, 3-(cyclopropylmethoxy)-N-((9S,12S)-5^4-methyl-8,11,14-trioxo-9-phenethyl-4-oxa-7,10-diaza-1(3,1)-piperidina-5(1,3)-benzenacyclotetradecaphane-12-yl)propanamide] | < 100 | < 100 | < 100 | < 100 | < 100 | < 100
3 | Cc1ccc2cc1CNC(=O)[C@H](CCc1ccccc1)NC(=O)[C@@H](NC(=O)C1CC3CCC(C1)N3C)CC(=O)N1CCCC(CCO2)C1 (stereo partly drawn) [Compound 713, 8-methyl-N-((9S,12S)-5^4-methyl-8,11,14-trioxo-9-phenethyl-4-oxa-7,10-diaza-1(3,1)-piperidina-5(1,3)-benzenacyclotetradecaphane-12-yl)-8-azabicyclo[3.2.1]octane-3-carboxamide] | < 100 | < 100 | < 100 | < 100 | < 100 | 100 to 500
4 | Cc1ccc2cc1CNC(=O)[C@H](CCc1ccccc1)NC(=O)[C@@H](NC(=O)C(C)(C)CO)CCCC(=O)NCCCCO2 [Compound 722, 3-hydroxy-2,2-dimethyl-N-((12S,15S)-1^4-methyl-8,13,16-trioxo-15-phenethyl-2-oxa-7,14,17-triaza-1(1,3)-benzenacyclooctadecaphane-12-yl)propanamide] | < 100 | 100 to 500 | 100 to 500 | < 100 | 100 to 500 | 500 to 1000
5 | Cc1ccc2cc1CNC(=O)[C@H](CCc1ccccc1)NC(=O)[C@@H](NC(=O)C13CC(O)(C1)C3)CC(=O)N1CCCC(CCO2)C1 (stereo partly drawn) [Compound 655, 3-hydroxy-N-((9S,12S)-5^4-methyl-8,11,14-trioxo-9-phenethyl-4-oxa-7,10-diaza-1(3,1)-piperidina-5(1,3)-benzenacyclotetradecaphane-12-yl)bicyclo[1.1.1]pentane-1-carboxamide] | < 100 | < 100 | < 100 | < 100 | < 100 | < 100
6 | Cc1ccc2cc1CNC(=O)[C@H](CCc1ccccc1)NC(=O)[C@@H](NCC(C)(C)N)CC(=O)N1CCCC(CCO2)C1 (stereo partly drawn) [Compound 727, (9S,12S)-12-((2-amino-2-methylpropyl)amino)-5^4-methyl-9-phenethyl-4-oxa-7,10-diaza-1(3,1)-piperidina-5(1,3)-benzenacyclotetradecaphane-8,11,14-trione] | < 100 | 100 to 500 | 500 to 1000 | < 100 | 100 to 500 | 1000 to 5000
7 | Cc1ccc2cc1CNC(=O)[C@H](CCc1ccccc1)NC(=O)[C@@H](NC(=O)CCOC1CC3(C1)CN(C)C3)CC(=O)N1CCCC(CCO2)C1 (stereo partly drawn) [Compound 710, 3-((2-methyl-2-azaspiro[3.3]heptan-6-yl)oxy)-N-((9S,12S)-5^4-methyl-8,11,14-trioxo-9-phenethyl-4-oxa-7,10-diaza-1(3,1)-piperidina-5(1,3)-benzenacyclotetradecaphane-12-yl)propanamide] | < 100 | < 100 | < 100 | < 100 | < 100 | < 100
8 | Cc1ccc2cc1CNC(=O)[C@H](CCc1ccccc1)NC(=O)[C@@H](NC(=O)CCNC(=O)C1CC3CCC1C3)CC(=O)N1CCCC(CCO2)C1 (stereo partly drawn) [Compound 617, N-(3-(((9S,12S)-5^4-methyl-8,11,14-trioxo-9-phenethyl-4-oxa-7,10-diaza-1(3,1)-piperidina-5(1,3)-benzenacyclotetradecaphane-12-yl)amino)-3-oxopropyl)bicyclo[2.2.1]heptane-2-carboxamide] | < 100 | < 100 | < 100 | < 100 | < 100 | < 100
9 | Cc1ccc2cc1CNC(=O)[C@H](CCc1ccccc1)NC(=O)[C@@H](NC1CC3CCC1C3)CC(=O)N1CCCC(CCO2)C1 (stereo partly drawn) [Compound 712, (9S,12S)-12-(bicyclo[2.2.1]heptan-2-ylamino)-5^4-methyl-9-phenethyl-4-oxa-7,10-diaza-1(3,1)-piperidina-5(1,3)-benzenacyclotetradecaphane-8,11,14-trione] | < 100 | < 100 | < 100 | < 100 | < 100 | 100 to 500
10 | Cc1ccc2cc1CNC(=O)[C@H](CCc1ccccc1)NC(=O)[C@@H](NC(=O)CCOCCCc1ccccc1)CC(=O)N1CCCC(CCO2)C1 (stereo partly drawn) [Compound 612, N-((9S,12S)-5^4-methyl-8,11,14-trioxo-9-phenethyl-4-oxa-7,10-diaza-1(3,1)-piperidina-5(1,3)-benzenacyclotetradecaphane-12-yl)-3-(3-phenylpropoxy)propanamide] | < 100 | < 100 | < 100 | < 100 | < 100 | < 100
11 | Cc1ccc2cc1CNC(=O)[C@H](CCc1ccccc1)NC(=O)[C@@H](NC(=O)OC1CCCCC1)CC(=O)N1CCCC(CCO2)C1 (stereo partly drawn) [Compound 632, cyclohexyl ((9S,12S)-5^4-methyl-8,11,14-trioxo-9-phenethyl-4-oxa-7,10-diaza-1(3,1)-piperidina-5(1,3)-benzenacyclotetradecaphane-12-yl)carbamate] | < 100 | < 100 | < 100 | < 100 | < 100 | < 100
12 | Cc1ccc2cc1CNC(=O)[C@H](CCc1ccccc1)NC(=O)[C@@H](NC(=O)C1CCCCC1)CC(=O)N1CCCC(CCO2)C1 (stereo partly drawn) [Compound 643, N-((9S,12S)-5^4-methyl-8,11,14-trioxo-9-phenethyl-4-oxa-7,10-diaza-1(3,1)-piperidina-5(1,3)-benzenacyclotetradecaphane-12-yl)cyclohexanecarboxamide] | < 100 | < 100 | < 100 | < 100 | < 100 | < 100
13 | Cc1ccc2cc1CNC(=O)[C@H](CCc1ccccc1)NC(=O)[C@@H](NC(=O)CCOCC1CCCC1)CC(=O)N1CCCC(CCO2)C1 (stereo partly drawn) [Compound 625, 3-(cyclopentylmethoxy)-N-((9S,12S)-5^4-methyl-8,11,14-trioxo-9-phenethyl-4-oxa-7,10-diaza-1(3,1)-piperidina-5(1,3)-benzenacyclotetradecaphane-12-yl)propanamide] | < 100 | < 100 | < 100 | < 100 | < 100 | < 100
14 | Cc1ccc2cc1CNC(=O)[C@H](CCc1ccccc1)NC(=O)[C@@H](NC(=O)CCOCCCC1CC1)CC(=O)N1CCCC(CCO2)C1 (stereo partly drawn) [Compound 626, 3-(3-cyclopropylpropoxy)-N-((9S,12S)-5^4-methyl-8,11,14-trioxo-9-phenethyl-4-oxa-7,10-diaza-1(3,1)-piperidina-5(1,3)-benzenacyclotetradecaphane-12-yl)propanamide] | < 100 | < 100 | < 100 | < 100 | < 100 | < 100
15 | Cc1ccc2cc1CNC(=O)[C@H](CCc1ccccc1)NC(=O)[C@@H](NC(=O)N1CCc3cnccc31)CC(=O)N1CCCC(CCO2)C1 (stereo partly drawn) [Compound 703, N-((9S,12S)-5^4-methyl-8,11,14-trioxo-9-phenethyl-4-oxa-7,10-diaza-1(3,1)-piperidina-5(1,3)-benzenacyclotetradecaphane-12-yl)-2,3-dihydro-1H-pyrrolo[3,2-c]pyridine-1-carboxamide] | < 100 | < 100 | < 100 | < 100 | < 100 | < 100
